From patent US12129258B2, “Diaryl macrocyclic compound and pharmaceutical composition, and use thereof” (PrimeGene (Beijing) Co., Ltd., priority 2018, dated 2024)
Where two headings read alike, the source gives them in different places.

How the values were obtained:
ALK-L1196M = ALK-L1196M (Homo sapiens (Human), UniProt Q9UM73, L1196M); assay: HTRF kinase activity assay, ALK-L1196M; format: biochemical; details: 30 μM ATP
Description: (§1) The IC50 values of the compounds were calculated using XLFIT5 (IDBS) software.

ROS1 = ROS1 (Homo sapiens (Human), UniProt P08922); assay: Mobility shift assay, ROS1 kinase; format: biochemical; details: ATP 26.7 μM
ROS1, sequence (P08922 28-2347): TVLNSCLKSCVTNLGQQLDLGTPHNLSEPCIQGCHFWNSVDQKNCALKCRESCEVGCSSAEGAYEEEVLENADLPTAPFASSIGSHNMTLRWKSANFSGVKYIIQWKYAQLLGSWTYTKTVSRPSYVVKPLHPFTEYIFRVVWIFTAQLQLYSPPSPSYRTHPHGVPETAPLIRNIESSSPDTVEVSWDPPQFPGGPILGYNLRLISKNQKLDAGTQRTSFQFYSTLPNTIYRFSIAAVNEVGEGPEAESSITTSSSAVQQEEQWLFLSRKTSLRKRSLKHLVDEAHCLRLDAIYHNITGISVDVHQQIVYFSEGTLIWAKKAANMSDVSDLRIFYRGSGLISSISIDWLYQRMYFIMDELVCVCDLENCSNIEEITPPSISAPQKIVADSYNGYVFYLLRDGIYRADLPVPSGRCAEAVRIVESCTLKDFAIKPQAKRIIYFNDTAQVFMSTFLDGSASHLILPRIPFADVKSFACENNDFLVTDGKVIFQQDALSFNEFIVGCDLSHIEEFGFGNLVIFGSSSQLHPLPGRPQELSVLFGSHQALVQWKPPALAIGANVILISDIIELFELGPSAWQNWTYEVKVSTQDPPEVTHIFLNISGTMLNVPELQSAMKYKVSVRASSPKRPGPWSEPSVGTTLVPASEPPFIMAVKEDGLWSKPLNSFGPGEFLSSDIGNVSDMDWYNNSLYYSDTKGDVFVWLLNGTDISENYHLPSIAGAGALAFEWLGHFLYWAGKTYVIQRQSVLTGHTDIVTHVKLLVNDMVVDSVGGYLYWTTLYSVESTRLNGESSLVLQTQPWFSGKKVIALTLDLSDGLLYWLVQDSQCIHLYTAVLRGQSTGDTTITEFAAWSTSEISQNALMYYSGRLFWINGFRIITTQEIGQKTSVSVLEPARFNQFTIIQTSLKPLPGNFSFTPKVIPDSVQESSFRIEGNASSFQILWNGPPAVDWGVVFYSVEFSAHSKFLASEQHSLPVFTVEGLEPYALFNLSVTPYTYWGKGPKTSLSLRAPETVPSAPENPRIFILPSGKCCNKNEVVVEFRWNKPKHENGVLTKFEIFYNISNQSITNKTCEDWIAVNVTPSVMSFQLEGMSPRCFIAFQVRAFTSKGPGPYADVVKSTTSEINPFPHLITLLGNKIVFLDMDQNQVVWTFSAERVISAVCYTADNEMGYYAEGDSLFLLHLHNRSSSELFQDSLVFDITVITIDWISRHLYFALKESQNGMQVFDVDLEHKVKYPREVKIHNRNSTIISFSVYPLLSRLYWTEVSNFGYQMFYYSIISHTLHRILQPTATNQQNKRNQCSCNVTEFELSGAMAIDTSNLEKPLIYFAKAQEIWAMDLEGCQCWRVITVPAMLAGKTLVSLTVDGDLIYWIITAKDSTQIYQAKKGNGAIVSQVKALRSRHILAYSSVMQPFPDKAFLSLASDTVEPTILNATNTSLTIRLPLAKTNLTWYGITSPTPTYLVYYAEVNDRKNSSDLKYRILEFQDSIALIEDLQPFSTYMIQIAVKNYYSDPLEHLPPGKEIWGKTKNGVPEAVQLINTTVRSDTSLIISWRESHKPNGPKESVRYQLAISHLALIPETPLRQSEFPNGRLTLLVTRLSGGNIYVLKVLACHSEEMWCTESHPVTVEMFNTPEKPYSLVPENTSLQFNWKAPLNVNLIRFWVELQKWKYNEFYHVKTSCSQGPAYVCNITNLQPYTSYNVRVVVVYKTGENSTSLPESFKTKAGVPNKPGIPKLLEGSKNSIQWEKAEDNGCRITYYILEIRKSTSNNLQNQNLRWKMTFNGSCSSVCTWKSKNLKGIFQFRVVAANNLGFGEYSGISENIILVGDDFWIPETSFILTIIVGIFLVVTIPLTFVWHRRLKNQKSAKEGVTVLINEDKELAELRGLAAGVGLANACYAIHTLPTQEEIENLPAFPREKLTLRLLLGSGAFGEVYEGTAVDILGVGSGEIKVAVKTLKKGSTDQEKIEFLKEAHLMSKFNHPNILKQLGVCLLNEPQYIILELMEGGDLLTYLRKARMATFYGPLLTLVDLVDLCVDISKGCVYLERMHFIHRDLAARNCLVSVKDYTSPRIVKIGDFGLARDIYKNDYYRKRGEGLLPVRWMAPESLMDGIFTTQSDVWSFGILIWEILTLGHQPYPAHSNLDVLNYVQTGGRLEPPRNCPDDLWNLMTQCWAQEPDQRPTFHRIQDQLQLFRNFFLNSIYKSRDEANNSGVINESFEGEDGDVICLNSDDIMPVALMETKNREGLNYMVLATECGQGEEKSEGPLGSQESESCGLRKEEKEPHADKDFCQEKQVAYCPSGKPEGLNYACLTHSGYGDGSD
Source text: (§2) The operation is described as follows:
(§3) Conversion %_Sample: conversion rate of sample;

TRKA [1] = biological target: T1, TRKA (Homo sapiens (Human), UniProt P04629); assay: Mobility shift assay, TRKA kinase; format: biochemical; details: ATP 47.8 μM
T1 sequence (P04629 33-796): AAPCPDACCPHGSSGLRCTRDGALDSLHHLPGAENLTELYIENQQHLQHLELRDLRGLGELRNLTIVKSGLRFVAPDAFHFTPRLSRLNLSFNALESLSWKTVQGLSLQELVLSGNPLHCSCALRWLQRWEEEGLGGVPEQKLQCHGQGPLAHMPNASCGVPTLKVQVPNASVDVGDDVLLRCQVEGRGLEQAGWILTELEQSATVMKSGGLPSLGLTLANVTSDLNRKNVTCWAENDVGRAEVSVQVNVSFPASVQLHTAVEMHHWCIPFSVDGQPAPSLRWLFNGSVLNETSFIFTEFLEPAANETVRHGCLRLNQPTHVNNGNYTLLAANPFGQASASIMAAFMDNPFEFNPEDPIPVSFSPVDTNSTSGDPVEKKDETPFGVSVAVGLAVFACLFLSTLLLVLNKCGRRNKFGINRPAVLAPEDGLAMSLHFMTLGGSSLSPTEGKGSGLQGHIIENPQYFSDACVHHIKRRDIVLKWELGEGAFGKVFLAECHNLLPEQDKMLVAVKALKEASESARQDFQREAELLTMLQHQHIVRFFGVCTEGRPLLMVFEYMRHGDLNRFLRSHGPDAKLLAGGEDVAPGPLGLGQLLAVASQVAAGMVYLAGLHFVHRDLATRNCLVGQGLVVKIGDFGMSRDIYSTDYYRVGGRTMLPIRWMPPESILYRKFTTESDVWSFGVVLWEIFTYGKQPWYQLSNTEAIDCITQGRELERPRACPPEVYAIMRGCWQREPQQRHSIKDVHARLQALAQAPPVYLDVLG
Source text: as §2, §3

TRKB = TRKB (Homo sapiens (Human), UniProt Q16620); assay: Mobility shift assay, TRKB kinase; details: read-out: TRKB IC50, ATP 71.2 μM
Description: The inhibitory activity of compounds on TRKA, TRKB, TRKC and ROS1 kinase was analyzed with Mobility shift assay. The screening platform is MSA based microfluidic chip technology, which applies the basic concept of capillary electrophoresis to microfluidic environment. The substrate used in the experiment is a poly-peptide labeled with fluorescent. Under the catalysis of enzyme in the reaction system, the substrate is transformed into a product, with the charge changed accordingly. MSA technology could detect the substrate and the product with different charge separately.
The compound powder was dissolved in 100% DMSO (Sigma, Cat. D8418-1l) to prepare a 10 mM storage solution. […] The reaction was carried out at room temperature for 30 min/40 min/20 min/20 min respectively. After the reaction was terminated, the conversion rate was read by Caliper EZ Reader II.
Conversion %_Min: mean value of negative control, representing the conversion rate without enzyme activity;
Conversion %_Max: mean value of positive control, which represents the conversion rate reading without compound inhibition.
Taking the log value of concentration as X axis and the percentage inhibition rate as Y axis, the dose response curve was fitted by the analysis software GraphPad Prism 5, thus the IC50 value of each compound on enzyme activity inhibition was obtained.

[2] = Pharmacokinetic analysis in rats; format: in vivo, Male SD rats; details: rat
Description: 6. Pharmacokinetic Analysis
Male SD rats were grouped, each group having 3 rats. […] Animals were fasted overnight from 10 hours before administration to 4 hours after administration. Blood samples were collected at 0.25, 0.5, 1, 2, 4, 8 and 24 hours after administration in the oral group and at 0.083, 0.25, 0.5, 1, 2, 4, 8 and 24 hours after injection in the intravenous group. After isoflurane anesthesia, 0.3 ml whole blood collected through the fundus vein plexus was put into the heparin anticoagulant tube. The sample was centrifuged at 4° C. at 4000 rpm for 5 min. The plasma was transferred into the centrifuge tube and stored at −80° C. until analysis. The extract from the plasma extracted by protein precipitation was analyzed by LC/MS/MS.

Ba/F3 ETV6-NTRK2-WT = assay: Cell proliferation inhibition (CellTiter-Glo), Ba/F3 ETV6-NTRK2-WT; format: cell-based; details: Mus musculus, BaF3, 72 h, 72 hrs, read-out: IC50 proliferation Ba/F3 ETV6-NTRK2-WT
Description: 4. Inhibitory Effect of Compounds on the Proliferation of TRK Fusion and Mutant Stable Cell Lines (IC50)
Six cell lines including Ba/F3 LMNA-NTRK1-WT, Ba/F3 LMNA-NTRK1-G595R, Ba/F3 ETV6-NTRK2-WT, Ba/F3 ETV6-NTRK2-G639R, Ba/F3 ETV6-NTRK2-G639R and Ba/F3 ETV6-NTRK3-G623R were used in this experiment. For the six cell lines, the maximum test concentration of the compound was 1 μM, 1 μM, 10 μM, […], 1 μM and 10 μM, were 3.16-fold gradient diluted to obtain 9 samples.
The operation is described briefly as follows:
The cells in logarithmic growth phase were harvested to ensure that the cell viability was above 90%. 3000 cell/well were seeded in 96-well plate (Corning, Cat #3603). The cells were incubated overnight with 5% CO2, 95% humidity at 37° C. Then each well containing the cells of the 96-well plate was added the compound solutions, 3 wells for each compound solution, and continued to incubate for another 72 hrs. Then CellTiter-Glo® kit (Promega, Cat #G7572) was used to do the detection. First, the CTG reagent was melted and the cell plate was balanced to room temperature. The same volume of CTG solution was added into each well and vibrated on the shaker for 5 minutes to lyse the cells. The cell plate was kept at room temperature for 20 minutes to stabilize the luminescent signal. The luminescent value was collected by SpectraMax microplate detector (MD, 2104-0010A). […] Cell survival rate (%)=(1umdrug−1ummedium)/(1umcell−lummedium)×100%

[3] = test system: H1975 (L858R and T790M double mutation) cells; assay: Analysis of synergistic effect with EGFR inhibitor (Chou-Talalay), H1975 proliferation; format: cell-based; details: combination with AZD9291, H1975 cells, 72 hr, Chou-Talalay index method
Description: 5. Analysis of Synergistic Effect
H1975 (L858R and T790M double mutation) cells were cultured in RPMI-1640 medium containing 10% FBS and 1% P/S ([…]). In the testing of the compounds, H1975 cells were seeded in 96-well plate (Corning, Cat #3917) at 3000 cell/well and the compounds were added at 195 μL solution/well. The initial test concentration of the compound was 10 μM, 3-fold gradient diluted to obtain 11 samples. 4 μL of each sample was added to 96 μL RPMI-1640 medium to dilute the 25× Compound. 5 μL was added to 195 μL cell medium (the final concentration of DMSO is 0.1%, v/v). After 72 hr incubation, 35 μL of CellTiter-Blue® (Promega, Cat #G8082) was added to the cells. The fluorescence signal was measured with FlexStation 3 (Molecular Devices) according to the instructions, and the IC50 value of the compound on cell proliferation inhibition was calculated by Graphpad Grism 5.0 software. The Chou-Talalay index method was used to analyze the effect of the combination. 0.9≤Combination Index (CI)≤1.1 means additive effect, 0.8≤CI<0.9 means low synergistic effect, 0.6≤CI<0.8 means medium synergistic effect, 0.4≤CI<0.6 means high synergistic effect, 0.2≤CI<0.4 means strong synergistic effect.

Ba/F3 ETV6-NTRK3-WT = assay: Cell proliferation inhibition (CellTiter-Glo), Ba/F3 ETV6-NTRK3-WT; format: cell-based; details: Mus musculus, BaF3, 72 h, 72 hrs, read-out: IC50 proliferation Ba/F3 ETV6-NTRK3-WT
TRKA [4] = biological target: T1, TRKA; assay: HTRF kinase activity assay, TRKA; format: biochemical; details: 90 μM ATP
Description: as §1

ROS1-G2032R = ROS1-G2032R (Homo sapiens (Human), UniProt P08922, G2032R); assay: LanceUltra kinase activity assay, ROS1-G2032R; format: biochemical; details: 2.6 μM ATP
ROS1-G2032R, sequence (P08922 28-2347 G2032R): as the sequence (P08922 28-2347) above, with G2005R counted along it
Description: 5 μl 40 mM EDTA was used to stop the reaction. Then 2 nM Europium-anti-phosphotyrosine (PT66) (PerkinElmer, Cat. AD0069) was added and incubated at room temperature for 60 mins. […] The IC50 values of the compounds were calculated using XLFIT5 (IDBS) software.

ALK-L1196M, sequence (Q9UM73 19-1620 L1196M): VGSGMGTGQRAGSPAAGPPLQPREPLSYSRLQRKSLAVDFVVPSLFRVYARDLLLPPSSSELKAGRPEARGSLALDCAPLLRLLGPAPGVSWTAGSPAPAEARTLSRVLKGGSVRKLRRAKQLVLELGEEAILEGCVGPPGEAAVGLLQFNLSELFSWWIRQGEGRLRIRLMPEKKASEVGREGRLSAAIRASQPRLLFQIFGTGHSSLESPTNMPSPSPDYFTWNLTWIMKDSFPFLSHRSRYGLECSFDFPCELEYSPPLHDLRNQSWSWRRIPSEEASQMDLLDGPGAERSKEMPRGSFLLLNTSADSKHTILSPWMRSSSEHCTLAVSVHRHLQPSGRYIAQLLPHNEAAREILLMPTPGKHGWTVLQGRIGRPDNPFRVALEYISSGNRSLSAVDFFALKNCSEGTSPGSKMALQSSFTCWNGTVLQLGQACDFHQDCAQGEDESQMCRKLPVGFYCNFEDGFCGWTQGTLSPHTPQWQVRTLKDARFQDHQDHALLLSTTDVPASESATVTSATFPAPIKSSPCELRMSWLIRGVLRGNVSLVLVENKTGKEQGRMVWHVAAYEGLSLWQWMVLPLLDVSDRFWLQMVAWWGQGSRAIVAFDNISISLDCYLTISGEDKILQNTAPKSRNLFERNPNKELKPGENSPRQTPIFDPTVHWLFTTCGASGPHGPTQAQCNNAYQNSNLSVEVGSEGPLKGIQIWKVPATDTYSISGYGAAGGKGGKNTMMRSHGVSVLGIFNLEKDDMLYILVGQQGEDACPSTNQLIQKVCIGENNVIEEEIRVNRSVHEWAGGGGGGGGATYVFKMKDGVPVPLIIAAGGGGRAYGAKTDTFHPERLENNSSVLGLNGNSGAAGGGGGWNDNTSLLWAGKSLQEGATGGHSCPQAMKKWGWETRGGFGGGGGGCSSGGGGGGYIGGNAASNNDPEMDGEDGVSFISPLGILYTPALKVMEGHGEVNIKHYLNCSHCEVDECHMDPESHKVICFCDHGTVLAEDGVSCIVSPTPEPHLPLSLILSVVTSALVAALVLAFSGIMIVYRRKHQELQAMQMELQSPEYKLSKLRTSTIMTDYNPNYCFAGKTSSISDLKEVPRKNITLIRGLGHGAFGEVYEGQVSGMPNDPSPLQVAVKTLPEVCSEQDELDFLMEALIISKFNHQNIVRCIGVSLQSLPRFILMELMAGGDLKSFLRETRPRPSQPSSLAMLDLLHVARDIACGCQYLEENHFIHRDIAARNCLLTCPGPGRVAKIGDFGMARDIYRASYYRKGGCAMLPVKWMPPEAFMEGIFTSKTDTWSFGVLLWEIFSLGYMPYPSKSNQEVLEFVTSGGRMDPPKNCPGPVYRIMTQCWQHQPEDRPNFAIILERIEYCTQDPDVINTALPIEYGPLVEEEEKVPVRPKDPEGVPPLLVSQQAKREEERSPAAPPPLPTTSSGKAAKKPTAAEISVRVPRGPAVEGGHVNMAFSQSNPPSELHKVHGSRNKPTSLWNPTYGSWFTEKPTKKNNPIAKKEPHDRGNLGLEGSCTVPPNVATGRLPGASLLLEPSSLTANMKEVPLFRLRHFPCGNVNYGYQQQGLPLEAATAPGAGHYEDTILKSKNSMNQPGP

IC50 (ALK-L1196M): 50 nM
IC50 (ROS1): 0.33 nM
IC50 (TRKA [1]): 0.42 nM
IC50 (TRKB): 0.5 nM
AUC(0-inf) ([2]; male, SD, plasma, IV, 1 mg/kg): 621 ng·h/mL
C0 ([2]; male, SD, plasma, IV, 1 mg/kg): 217 ng/mL
half-life ([2]; male, SD, plasma, IV, 1 mg/kg): 1.7 h
clearance ([2]; male, SD, plasma, IV, 1 mg/kg, read-out: C1 (clearance)): 27.2 mL/min/kg
Vd ([2]; male, SD, plasma, IV, 1 mg/kg, read-out: Vdss): 4.26 L/kg
AUC(0-inf) ([2]; male, SD, plasma, PO, 5 mg/kg): 3550 ng·h/mL
Cmax ([2]; male, SD, plasma, PO, 5 mg/kg): 952 ng/mL
Tmax ([2]; male, SD, plasma, PO, 5 mg/kg): 0.667 h
half-life ([2]; male, SD, plasma, PO, 5 mg/kg): 1.84 h
bioavailability ([2]; male, SD, plasma, po, 5 mg/kg, PO, 5 mg/kg, read-out: F (oral bioavailability)): 100%
F (oral bioavailability) ([2]; PO, 5 mg/kg): 114%
IC50 (Ba/F3 ETV6-NTRK2-WT; test batch marked #): 4.24 nM
IC50 (Ba/F3 ETV6-NTRK2-WT; test batch marked *): 7.8 nM
IC50 (Ba/F3 ETV6-NTRK3-WT; test batch marked #): 1.04 nM
IC50 (Ba/F3 ETV6-NTRK3-WT; test batch marked *): 0.2 nM
IC50 (TRKA [4]): 0.13 nM
IC50 (ROS1-G2032R): 0.36 nM
SMILES: C[C@H]1COC(=O)c2cnn3ccc(nc23)N[C@H](C)c2cc(F)ccc2O1 [Example 1, (1^3E,1^4E,3R,6S)-4^5-fluoro-3,6-dimethyl-5,8-dioxa-2-aza-1(5,3)-pyrazolo[1,5-a]pyrimidina-4(1,2)-benzenacyclononaphan-9-one]
PK performance compared with TPX-0005 ([2]; oral): better oral pharmacokinetic performance than that of TPX-0005
Combination Index (CI) [3]: 0.53-0.67
